The values that follow come from PMC4729137, “Functional analysis of androgen receptor mutations that confer anti-androgen resistance identified in circulating cell-free DNA from prostate cancer patients” (Genome Biology, 2016).

For series [1] the following is noted: serum of prostate cancer patients, cited from earlier work.
Another series has as its target T1, BF3 pocket of AR-LBD (Homo sapiens, UniProt P10275).
T1 construct: the (His)6-tagged AR-LBD was prepared at 4X final concentration in the buffer
T1 sequence (P10275 669-900 limits assumed): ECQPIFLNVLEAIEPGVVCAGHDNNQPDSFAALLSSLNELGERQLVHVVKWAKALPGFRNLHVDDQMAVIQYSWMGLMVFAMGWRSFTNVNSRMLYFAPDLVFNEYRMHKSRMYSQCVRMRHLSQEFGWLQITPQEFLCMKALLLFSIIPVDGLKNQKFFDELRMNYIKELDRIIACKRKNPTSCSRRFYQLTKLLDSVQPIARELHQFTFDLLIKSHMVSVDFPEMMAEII
The experiment in a line: Lanthascreen TR-FRET displacement of FITC-BAG1L peptide. The series is classed as binding. The settings on record: compounds 0.41 to 100 μM. (In TR-FRET formats the signal depends on donor and acceptor labels being close together.)

A further series relates to 24 AR mutants. The experiment in a line: AR inhibition luciferase assay, panel of all 24 AR mutants. To be noted: all tested AR mutants; Additional file 4: Table S2. The series is classed as cell-based, human. The text has this:
Full-length human AR (WT-AR) was encoded on a pcDNA3.1 expression plasmid (Life technologies). The LBD point mutations (single and multiple) were generated using the QuikChange II Site-Directed Mutagenesis Kit (Agilent Technologies) as per manufacturer’s instructions using WT-AR as the template. The mutagenic oligonucleotide primers were designed individually with the desired mutation in the middle of the primer with approximately 10 to 15 bases of correct sequence on both sides.
PC3 cells were seeded and transfected as described above. […] A non-stimulated/no R1881 control was used. After 24 h, cells were lysed and AR-dependent luciferase activity was quantified. Each concentration was assayed in quadruplicate n = 4, with a biological replicate of n = 3. Results were averaged and normalized by expressing them as a percentage of WT AR activity.

Read-outs that look alike come from different tables or passages of the source.

Method for BF3 pocket of AR-LBD: Compounds were tested in the range of 0.41 to 100 μM in a final concentration of 1.5 % DMSO. The protein AR-LBD, the FITC-BAG1L peptide, and the LanthaScreen® Elite Terbium-labeled anti-His-tag antibody (Life Technologies, PV5863) were used at final concentrations of 100 nM, 500 nM, and 5 nM, respectively. […] Mix B contained 4X FITC-BAG1L peptide in 2 % DMSO. A three-fold serial dilution of the compounds was prepared at 100X final concentration in DMSO. […] In a black flat bottom 384-well plate 5 μL of Mix A, 5 μL of Mix B, and 10 μL of Mix C were added.

As for `CC(O)(CS(=O)(=O)c1ccc(F)cc1)C(=O)Nc1ccc(C#N)c(C(F)(F)F)c1` (stereo not shown) [Bicalutamide, bicalutamide], the “Steady state concentration in serum” value in series [1] was 8.9 µg/mL; in series [1] (converted from μg/mL) it was “approximately 20 μM”.

As to `Brc1cn(-c2csc(N3CCOCC3)n2)c(Br)n1` [VPC-14449], on BF3 pocket of AR-LBD, the “Displacement of FITC labeled BAG1L peptide (residues 1-20) from the BF3 pocket of AR” value is “not able to displace”.

On to `C[C@]12CC[C@H](O)CC1=CC[C@@H]1[C@@H]2CC[C@]2(C)C(c3cccnc3)=CC[C@@H]12` [abiraterone], for which the “Activation of AR mutants (in words)” value in the series on 24 AR mutants was “none of the tested mutants were activated”.
